Tested on: Jurkat FADD (−/−) Cells
Test: TNF-α induced necroptosis of Jurkat FADD-deficient cells (CellTiter-Glo cell survival)
Type: cell-based, human
Settings: Homo sapiens; TNF-α induced necroptosis, Jurkat FADD-deficient cells, 13 hours, CellTiter-Glo; read-out: IC50
Protocol: 1. Cell Activity Testing System (TNF-α Induces the Necroptosis of Jurkat Cells, the Human Leukemia Cells Deficient in FADD).
(1) Cell culture: Jurkat FADD-deficient cells were cultured in an RPMI 1640 medium with 10% fetal bovine serum (FBS), 100 U/mL penicillin, and 100 […]. The cells were cultured in a cell culture incubator at 37° C. with 5% CO2. And all the cells were cryopreserved in a complete medium containing 5-10% DMSO. Medium change and passage were performed 3-4 times per week.
(4) Experimental scheme: The system of TNF-α inducing the necroptosis of Jurkat FADD-deficient cells was used to screen for compounds with RIPKl kinase inhibitory activity.
Jurkat FADD-deficient cells were evenly inoculated into a 384-well plate with each well added with a 40 μL complete culture medium, followed by the addition of 5 μL of the under-testing compound to each well. The initial concentration of the compounds was set at 25 μM (for some compounds with higher activity, the initial concentration was set at 0.5 μM), with a three-fold gradient dilution, totaling 12 gradient points. Three replicate wells were set for each compound. In addition, there was a blank control group and a control group with TNFα stimulation only. After the compound was added, the mixture needed to be centrifuged and incubated in a cell culture incubator at 37° C. containing 5% CO2 for 1 hour. After that, 5 μL of 5 ng/mL TNFα was added to stimulate the occurrence of necroptosis. After centrifugation and mixing, the mixture was placed in the cell culture incubator for 13 hours (until the cell death rate reaches 65% in the group with only TNF-α), with a total volume of 50 μL per well. Then, the steps below were followed to test the cell survival rate.
The CellTiter-Glo® Buffer was removed from the reagent kit, equilibrated to room temperature, and used to dissolve the CellTiter-Glo® Substrate. The CellTiter-Glo® Reagent obtained could be directly used for the experiment.
15 μL of CellTiter-Glo® Reagent which has been equilibrated to room temperature was added to each well, and incubated in the dark for 15 minutes. After that, a microplate reader (Enspire Multimode Plate Reader of PerkinElmer, USA) was used to measure the chemiluminescence.

Q: `CN1C(=O)C(NC(=O)c2nnc(Cc3ccccc3)[nH]2)Cn2ccc3cccc1c32` (racemic) [T-1, (±)-5-benzyl-N-(1-methyl-2-oxy-1,2,3,4-tetrahydro-[1,4]diazepino [3,2,1-hi]indol-3-yl)-4H-1,2,4-triazole-3-carboxamide] was tested. Which IC50 did it give?
A: < 10 nM

Q: For `CN1C(=O)C(NC(=O)c2ncc(Cc3ccccc3)o2)Cn2ccc3cccc1c32` (racemic) [T-2, (±)-5-benzyl-N-(1-methyl-2-oxy-1,2,3,4-tetrahydro-[1,4]diazepino [3,2,1-hi]indol-3-yl) oxazole-2-carboxamide], which IC50 is on record?
A: < 10 nM

Q: With `CN1C(=O)C(NC(=O)c2nnc(Cc3ccccc3)[nH]2)Cn2cc(I)c3cccc1c32` (racemic) [T-3, (±)-5-benzyl-N-(7-iodo-1-methyl-2-oxo-1,2,3,4-tetrahydro-[1,4]diazepino [3,2,1-hi]indol-3-yl)-4H-1,2,4-triazole-3-carboxamide] as the compound, how does the IC50 read?
A: 10 to 100 nM

Q: `CSc1cn2c3c(cccc13)N(C)C(=O)C(NC(=O)c1nnc(Cc3ccccc3)[nH]1)C2` (racemic) [T-4, (±)-5-benzyl-N-(1-methyl-7-(methylthio)-2-carbonyl-1,2,3,4-tetrahydro-[1,4]diazepino [3,2,1-hi]indol-3-yl)-4H-1,2,4-triazole-3-carboxamide] was tested. Which IC50 did it give?
A: 10 to 100 nM

Q: How did the IC50 turn out when `CN1C(=O)C(NC(=O)c2nnc(Cc3ccccc3)[nH]2)Cn2ccc3cc(Cl)cc1c32` (racemic) [T-5, (±)-5-benzyl-N-(9-chloro-1-methyl-2-oxo-1,2,3,4-tetrahydro-[1,4]diazepino [3,2,1-hi]indol-3-yl)-4H-1,2,4-triazole-3-carboxamide] was run?
A: 100 to 1000 nM

Q: Which IC50 does the source give for `CN1C(=O)C(NC(=O)c2nnc(Cc3ccccc3)[nH]2)Cn2ccc3cc(Br)cc1c32` (racemic) [T-6, (±)-5-benzyl-N-(9-bromo-1-methyl-2-oxo-1,2,3,4-tetrahydro-[1,4]diazepino [3,2,1-hi]indol-3-yl)-4H-1,2,4-triazole-3-carboxamide] here?
A: 100 to 1000 nM

Q: With `CN1C(=O)C(NC(=O)c2nnc(Cc3ccccc3)[nH]2)Cn2ccc3cc(F)cc1c32` (racemic) [T-7, (±)-5-benzyl-N-(9-fluoro-1-methyl-2-oxo-1,2,3,4-tetrahydro-[1,4]diazepino [3,2,1-hi]indol-3-yl)-4H-1,2,4-triazole-3-carboxamide] as the compound, how does the IC50 read?
A: 10 to 100 nM

Q: For `CN1C(=O)C(NC(=O)c2nnc(Cc3ccccc3)[nH]2)Cn2cc(C#Cc3cnn(C)c3)c3cccc1c32` (racemic) [T-8, (±)-5-benzyl-N-(1-methyl-7-((1-methyl-1H-pyrazol-4-yl)ethynyl)-2-oxy-1,2,3,4-tetrahydro-[1,4]diazepino [3,2,1-hi]indol-3-yl)-4H-1,2,4-triazole-3-carboxamide], which IC50 is on record?
A: < 10 nM

Q: For `CN1C(=O)C(NC(=O)c2nnc(Cc3ccccc3)[nH]2)Cn2ccc3cc(C#Cc4cnn(C)c4)cc1c32` (racemic) [T-9, (±)-5-benzyl-N-(1-methyl-9-((1-methyl-1H-pyrazol-4-yl)ethynyl)-2-oxy-1,2,3,4-tetrahydro-[1,4]diazepino [3,2,1-hi]indol-3-yl)-4H-1,2,4-triazole-3-carboxamide], which IC50 is on record?
A: < 10 nM

Q: For `CCN1C(=O)C(NC(=O)c2nnc(Cc3ccccc3)[nH]2)Cn2ccc3cccc1c32` (racemic) [T-10, (±)-5-benzyl-N-(1-ethyl-2-oxy-1,2,3,4-tetrahydro-[1,4]diazepino [3,2,1-hi]indol-3-yl)-4H-1,2,4-triazole-3-carboxamide], which IC50 is on record?
A: 10 to 100 nM

Q: `CN1C(=O)C(NC(=O)c2nnc(Cc3ccccc3)[nH]2)Cn2cc(Br)c3cccc1c32` (racemic) [T-11, (±)-5-benzyl-N-(7-bromo-1-methyl-2-oxo-1,2,3,4-tetrahydro-[1,4]diazepino [3,2,1-hi]indol-3-yl)-4H-1,2,4-triazole-3-carboxamide] was tested. Which IC50 did it give?
A: 10 to 100 nM

Q: Which IC50 does the source give for `CCOC(=O)c1cc2cccc3c2n1CC(NC(=O)c1nnc(Cc2ccccc2)[nH]1)C(=O)N3C` (racemic) [T-12, (±)-3-(5-benzyl-4H-1,2,4-triazole-3-carboxamido)-1-methyl-2-oxy-1,2,3,4-tetrahydro-[1,4] diazepino [3,2,1-hi] indole-6-carboxylate] here?
A: 100 to 1000 nM

Q: How did the IC50 turn out when `CN1C(=O)C(NC(=O)c2nnc(Cc3ccccc3)[nH]2)Cn2c(C(=O)O)cc3cccc1c32` (racemic) [T-13, (±)-3-(5-benzyl-4H-1,2,4-triazole-3-carboxamido)-1-methyl-2-oxy-1,2,3,4-tetrahydro-[1,4] diazepino [3,2,1-hi] indole-6-carboxylic Acid] was run?
A: > 1000 nM

Q: With `CN1C(=O)C(NC(=O)c2nnc(Cc3ccccc3)[nH]2)CN2CCc3cccc1c32` (racemic) [T-14, (±)-5-benzyl-N-(1-methyl-2-oxo-1,2,3,4,6,7-hexahydro-[1,4]diazepino [3,2,1-hi]indol-3-yl)-4H-1,2,4-triazole-3-carboxamide] as the compound, how does the IC50 read?
A: 10 to 100 nM

Q: For `CN1C(=O)C(NC(=O)c2nnc(Cc3ccccc3)[nH]2)Cn2cc(-c3cnn(C)c3)c3cccc1c32` (racemic) [T-15, (±)-5-benzyl-N-(1-methyl-7-(1-methyl-1H-pyrazol-4-yl)-2-oxy-1,2,3,4-tetrahydro-[1,4]diazepino [3,2,1-hi]indol-3-yl)-4H-1,2,4-triazole-3-carboxamide], which IC50 is on record?
A: < 10 nM

Q: For `CN1C(=O)C(NC(=O)c2nnc(Cc3ccccc3)[nH]2)Cn2cc(-c3cccnc3)c3cccc1c32` (racemic) [T-17, (±)-5-benzyl-N-(1-methyl-2-oxo-7-(pyridin-3-yl)-1,2,3,4-tetrahydro-[1,4]diazepino [3,2,1-hi]indol-3-yl)-4H-1,2,4-triazole-3-carboxamide], which IC50 is on record?
A: 10 to 100 nM

Q: How did the IC50 turn out when `CN1C(=O)C(NC(=O)c2nnc(Cc3ccccc3)[nH]2)Cn2cc(-c3cc(C(F)(F)F)nn3C)c3cccc1c32` (racemic) [T-18, (±)-5-benzyl-N-(1-methyl-7-(1-methyl-3-(trifluoromethyl)-1H-pyrazol-5-yl)-2-oxo-1,2,3,4-tetrahydro-[1,4]diazepino [3,2,1-hi]indol-3-yl)-4H-1,2,4-triazole-3-carboxamide] was run?
A: < 10 nM

Q: Which IC50 does the source give for `CN1C(=O)C(NC(=O)c2nnc(Cc3ccccc3)[nH]2)Cc2c[nH]c3cccc1c23` (racemic) [T-19, (±)-5-benzyl-N-(1-methyl-2-oxo-2,3,4,6-tetrahydro-1H-azacyclo [4,3,2-cd]indol-3-yl)-4H-1,2,4-triazole-3-carboxamide] here?
A: < 10 nM

Q: For `CN1C(=O)C(NC(=O)c2nnc(Cc3ccccc3)[nH]2)Cc2cn(C)c3cccc1c23` (racemic) [T-20, (±)-5-benzyl-N-(1,6-dimethyl-2-oxo-2,3,4,6-tetrahydro-1H-azacyclo [4,3,2-cd]indol-3-yl)-4H-1,2,4-triazole-3-carboxamide], which IC50 is on record?
A: 10 to 100 nM

Q: For `CN1C(=O)C(NC(=O)c2nnc(Cc3ccccc3)[nH]2)Cc2cn(S(=O)(=O)c3ccccc3)c3cccc1c23` (racemic) [T-21, (±)-5-benzyl-N-(1-methyl-2-oxo-6-(benzenesulfonyl)-2,3,4,6-tetrahydro-1H-aza [4,3,2-cd]indol-3-yl)-4H-1,2,4-triazole-3-carboxamide], which IC50 is on record?
A: 100 to 1000 nM

Q: For `CN1C(=O)C(NC(=O)c2nnc(Cc3ccccc3)[nH]2)Cc2cn(CC3CC3)c3cccc1c23` (racemic) [T-22, (±)-5-benzyl-N-(6-(cyclopropylmethyl)-1-methyl-2-oxo-2,3,4,6-tetrahydro-1H-azacyclo [4,3,2-cd]indol-3-yl)-4H-1,2,4-triazole-3-carboxamide], which IC50 is on record?
A: 10 to 100 nM

Q: For `CN1C(=O)C(NC(=O)c2nnc(Cc3ccccc3)[nH]2)Cc2cn(C3CC3)c3cccc1c23` (racemic) [T-23, (±)-5-benzyl-N-(6-cyclopropyl-1-methyl-2-oxo-2,3,4,6-tetrahydro-1H-azacyclo [4,3,2-cd]indol-3-yl)-4H-1,2,4-triazole-3-carboxamide], which IC50 is on record?
A: 100 to 1000 nM

Q: For `CN1C(=O)C(NC(=O)c2nnc(Cc3ccccc3)[nH]2)Cc2cn(-c3ccccc3)c3cccc1c23` (racemic) [T-24, (±)-5-benzyl-N-(1-methyl-2-oxo-6-phenyl-2,3,4,6-tetrahydro-1H-azacyclo [4,3,2-cd]indol-3-yl)-4H-1,2,4-triazole-3-carboxamide], which IC50 is on record?
A: 10 to 100 nM

Q: `CN1C(=O)C(NC(=O)c2nnc(Cc3ccccc3)[nH]2)Cc2cn(CC#N)c3cccc1c23` (racemic) [T-25, (±)-5-benzyl-N-(6-(cyanomethyl)-1-methyl-2-oxo-2,3,4,6-tetrahydro-1H-azacyclo [4,3,2-cd]indol-3-yl)-4H-1,2,4-triazole-3-carboxamide] was tested. Which IC50 did it give?
A: < 10 nM

Q: For `CN1C(=O)C(NC(=O)c2nnc(Cc3ccccc3)[nH]2)Cc2cn(CCF)c3cccc1c23` (racemic) [T-26, (±)-5-benzyl-N-(6-(2-fluoroethyl)-1-methyl-2-oxo-2,3,4,6-tetrahydro-1H-azacyclo [4,3,2-cd]indol-3-yl)-4H-1,2,4-triazole-3-carboxamide], which IC50 is on record?
A: 10 to 100 nM

Q: `CC(C#N)Cn1cc2c3c(cccc31)N(C)C(=O)C(NC(=O)c1nnc(Cc3ccccc3)[nH]1)C2` (racemic) [T-27, (±)-5-benzyl-N-(6-(2-cyanopropyl)-1-methyl-2-oxo-2,3,4,6-tetrahydro-1H-azacyclo [4,3,2-cd]indol-3-yl)-4H-1,2,4-triazole-3-carboxamide] was tested. Which IC50 did it give?
A: 10 to 100 nM
